In patent US20090076015A1, “Tricyclic Spiro Compound Comprising Acyl Group Bound to Nitrogen Atom in the Ring” (priority 2005, published 2009):

The compounds below were run against T1, human FXa (Homo sapiens, UniProt P00742) (assay: Measurement of the human FXa inhibitory action). Conditions: human FXa 0.019 U/ml, substrate S-2222 0.4 mM, 37° C., Tris-HCl buffer pH 7.5.
T1 construct: purchased Enzyme Research Laboratories, Inc
Format: biochemical
Method: In vitro FXa inhibitory activity may be measured according to the method of Kettner et al. (Journal of Biological Chemistry, vol. 265, pages 18289 to 18297, 1990). To be more specific, human FXa (product of Enzyme Research Laboratories, Inc., 0.019 U/ml) is mixed with the specimens (of the compound of the present invention) prepared by diluting the compound of the invention with dimethylsulfoxide (DMSO) to different concentrations and synthetic substrate S-2222 (Chromogenix AB, 0.4 mM), and the mixtures are incubated at 37° C. in Tris-hydrochloric acid buffer (pH 7.5). The FXa inhibitory activity of the specimen is calculated by continuously observing the absorbance at 405 nm, and comparing the initial speed with the initial speed in the absence of the specimen.
It should be noted that the FXa inhibitory activity of the specimen is generally indicated as IC50.

T1 sequence (P00742 235-488 limits assumed): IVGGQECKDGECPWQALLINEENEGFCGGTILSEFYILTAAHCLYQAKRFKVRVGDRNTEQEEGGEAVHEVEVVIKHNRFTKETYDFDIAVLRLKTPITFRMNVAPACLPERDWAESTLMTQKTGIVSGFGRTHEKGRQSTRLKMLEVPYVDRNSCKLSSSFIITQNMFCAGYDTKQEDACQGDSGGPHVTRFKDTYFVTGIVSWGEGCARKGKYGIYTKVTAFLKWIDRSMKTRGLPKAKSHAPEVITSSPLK
T1 sequence (P00742 41-179 partner limits assumed): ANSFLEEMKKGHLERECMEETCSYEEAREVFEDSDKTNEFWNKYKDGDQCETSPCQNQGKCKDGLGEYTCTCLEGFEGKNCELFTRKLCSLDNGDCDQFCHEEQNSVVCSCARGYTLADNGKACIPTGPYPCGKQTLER

IC50	Compound
5.6 nM	CC(=O)NCC12CN(S(=O)(=O)c3cc4cc(Cl)ccc4[nH]3)CC(=O)N1CC1(CCN(C(C)=O)CC1)N2C (single isomer, unassigned) [Example 21, optically active 1′-acetyl-8a-(acetylaminomethyl)-7-[(5-chloro-1H-indol-2-yl)sulfonyl]tetrahydro-1-methyl-spiro[imidazo[1,2-a]pyrazine-2(3H),4′-piperidin]-5(1H)-one]
4.5 nM	CC(=O)N1CCC2(CC1)CN1C(=O)CN(S(=O)(=O)c3cc4cc(Cl)ccc4[nH]3)CC1(CN(C)C)O2 (single isomer, unassigned) [Example 60, optically active 1′-acetyl-7-[(5-chloro-1H-indol-2-yl)sulfonyl]tetrahydro-8a-(N,N-dimethylaminomethyl)-spiro[5H-oxazolo[3,2-a]pyrazine-2(3H),4′-piperidin]-5-one]
1.6 nM	CCC(=O)N1CCC2(CC1)CN1C(=O)CN(S(=O)(=O)c3cc4cc(Cl)ccc4[nH]3)CC1(CN(C)CC(=O)O)O2 (single isomer, unassigned) [Example 66, optically active N-[[7-[(5-chloro-1H-indol-2-yl)sulfonyl]tetrahydro-5-oxo-1′-propanoyl-spiro[5H-oxazolo[3,2-a]pyrazine-2(3H),4′-piperidin]-8a-yl]methyl]-N-methylglycine]
5.7 nM	COCC12CN(S(=O)(=O)c3cc4cc(Cl)ccc4[nH]3)CC(=O)N1CC1(CCN(C(C)=O)CC1)N2C (single isomer, unassigned; (-)) [Example 1, (−)-1′-acetyl-7-[(5-chloro-1H-indol-2-yl)sulfonyl]tetrahydro-8a-(methoxymethyl)-1-methyl-spiro[imidazo[1,2-a]pyrazine-2(3H),4′-piperidin]-5(1H)-one]
1.8 nM	CCC(=O)N1CCC2(CC1)CN1C(=O)CN(S(=O)(=O)c3cc4cc(Cl)ccc4[nH]3)CC1(COC)N2C (single isomer, unassigned; (-)) [Example 2, (−)-7-[(5-chloro-1H-indol-2-yl)sulfonyl]tetrahydro-8a-(methoxymethyl)-1-methyl-1′-propanoyl-spiro[imidazo[1,2-a]pyrazine-2(3H),4′-piperidin]-5(1H)-one]
1.3 nM	COCC12CN(S(=O)(=O)c3cc4cc(Cl)ccc4[nH]3)CC(=O)N1CC1(CCN(C(=O)C3CCC3)CC1)N2C (single isomer, unassigned; (-)) [Example 3, (−)-7-[(5-chloro-1H-indol-2-yl)sulfonyl]-1′-cyclobutanecarbonyl-tetrahydro-8a-(methoxymethyl)-1-methyl-spiro[imidazo[1,2-a]pyrazine-2(3H),4′-piperidin]-5(1H)-one]
2.6 nM	C#CC(=O)N1CCC2(CC1)CN1C(=O)CN(S(=O)(=O)c3cc4cc(Cl)ccc4[nH]3)CC1(COC)N2C (single isomer, unassigned; (-)) [Example 13, (−)-7-[(5-chloro-1H-indol-2-yl)sulfonyl]tetrahydro-8a-(methoxymethyl)-1-methyl-1′-propinoyl-spiro[imidazo[1,2-a]pyrazine-2(3H),4′-piperidin]-5(1H)-one]
6.5 nM	C#CC(=O)N1CCC2(CC1)CN1C(=O)CN(S(=O)(=O)c3cc4ccc(Cl)cc4s3)CC1(COC)N2C (single isomer, unassigned; (-)) [Example 17, (−)-7-[(6-chloro-benzo[b]thiophen-2-yl)sulfonyl]tetrahydro-8a-(methoxymethyl)-1-methyl-1′-propinoyl-spiro[imidazo[1,2-a]pyrazine-2(3H),4′-piperidin]-5(1H)-one]
5.7 nM	CCC(=O)N1CCC2(CC1)CN1C(=O)CN(S(=O)(=O)c3cc4cc(Cl)ccc4[nH]3)CC1(COC)N2 (single isomer, unassigned; (-)) [Example 26, (−)-7-[(5-chloro-1H-indol-2-yl)sulfonyl]tetrahydro-8a-(methoxymethyl)-1′-propanoyl-spiro[imidazo[1,2-a]pyrazine-2(3H),4′-piperidin]-5(1H)-one]
8.2 nM	COCC12CN(S(=O)(=O)c3cc4cc(Cl)ccc4[nH]3)CC(=O)N1CC1(CCN(C(C)=O)CC1)O2 (single isomer, unassigned; (-)) [Example 34, (−)-1′-acetyl-7-[(5-chloro-1H-indol-2-yl)sulfonyl]tetrahydro-8a-(methoxymethyl)-spiro[5H-oxazolo[3,2-a]pyrazine-2(3H),4′-piperidin]-5-one]

The compounds below were run on human plasma (assay: Measurement of intrinsic coagulation time (APTT) in vitro). Conditions: APTT reagent, 37° C., calcium chloride 25 mM.
Format: biochemical
Method: Activated partial thromboplastin time (APTT) is measured in the presence of the test compounds of the present invention diluted at various concentrations. To be more specific, each of the test compounds diluted with DMSO at various concentrations is mixed with human plasma and APTT reagent. The mixture is incubated at 37° C. for 2 minutes; calcium chloride (25 mM) is added to the mixture; and the coagulation time is thereafter measured. It should be noted that the anticoagulant activity of the test compound is described in terms of the concentration required to double the coagulation time for the case where no test compound is added.

Compound	Concentration when APTT was doubled
CC(=O)NCC12CN(S(=O)(=O)c3cc4cc(Cl)ccc4[nH]3)CC(=O)N1CC1(CCN(C(C)=O)CC1)N2C (single isomer, unassigned) [Example 21, optically active 1′-acetyl-8a-(acetylaminomethyl)-7-[(5-chloro-1H-indol-2-yl)sulfonyl]tetrahydro-1-methyl-spiro[imidazo[1,2-a]pyrazine-2(3H),4′-piperidin]-5(1H)-one]	0.36 µM
CCOC(=O)CN(C)CC12CN(S(=O)(=O)c3cc4cc(Cl)ccc4[nH]3)C[C@@H](O)N1CC1(CCN(C(=O)CC)CC1)O2 (single isomer, unassigned) [Example 64, optically active 7-[(5-chloro-1H-indol-2-yl)sulfonyl]tetrahydro-8a-[(N-ethoxycarboxymethyl)-N-methylaminomethyl]-1′-propanoyl-spiro[5H-oxazolo[3,2-a]pyrazine-2(3H),4′-piperidin]-5-one]	0.89 µM
C=CC(=O)N1CCC2(CC1)CN1C(=O)CN(S(=O)(=O)c3cc4cc(Cl)ccc4[nH]3)CC1(COC)N2C (single isomer, unassigned; (-)) [Example 4, (−)-7-[(5-chloro-1H-indol-2-yl)sulfonyl]tetrahydro-8a-(methoxymethyl)-1-methyl-1′-propenoyl-spiro[imidazo[1,2-a]pyrazine-2(3H),4′-piperidin]-5(1H)-one]	0.5 µM
COCC12CN(S(=O)(=O)/C=C/c3ccc(Cl)s3)CC(=O)N1CC1(CCN(C(C)=O)CC1)N2C (single isomer, unassigned; (-)) [Example 14, (−)-1′-acetyl-7-[[(1E)-2-(5-chloro-2-thienyl)ethenyl]sulfonyl]tetrahydro-8a-(methoxymethyl)-1-methyl-spiro[imidazo[1,2-a]pyrazine-2(3H),4′-piperidin]-5(1H)-one]	0.64 µM
C#CC(=O)N1CCC2(CC1)CN1C(=O)CN(S(=O)(=O)c3cc4ccc(Cl)cc4s3)CC1(COC)N2C (single isomer, unassigned; (-)) [Example 17, (−)-7-[(6-chloro-benzo[b]thiophen-2-yl)sulfonyl]tetrahydro-8a-(methoxymethyl)-1-methyl-1′-propinoyl-spiro[imidazo[1,2-a]pyrazine-2(3H),4′-piperidin]-5(1H)-one]	0.87 µM
CCN1C2(CCN(C(C)=O)CC2)CN2C(=O)CN(S(=O)(=O)c3cc4cc(Cl)ccc4[nH]3)CC21COC (single isomer, unassigned; (-)) [Example 23, (−)-1′-acetyl-7-[(5-chloro-1H-indol-2-yl)sulfonyl]tetrahydro-1-ethyl-8a-(methoxymethyl)-spiro[imidazo[1,2-a]pyrazine-2(3H),4′-piperidin]-5(1H)-one]	0.19 µM
CCC(=O)N1CCC2(CC1)CN1C(=O)CN(S(=O)(=O)c3cc4cc(Cl)ccc4[nH]3)CC1(COC)N2 (single isomer, unassigned; (-)) [Example 26, (−)-7-[(5-chloro-1H-indol-2-yl)sulfonyl]tetrahydro-8a-(methoxymethyl)-1′-propanoyl-spiro[imidazo[1,2-a]pyrazine-2(3H),4′-piperidin]-5(1H)-one]	0.44 µM
COCC12CN(S(=O)(=O)/C=C/c3ccc(Cl)s3)CC(=O)N1CC1(CCN(C(C)=O)CC1)O2 (single isomer, unassigned; (-)) [Example 36, (−)-1′-acetyl-7-[[(1E)-2-(5-chloro-2-thienyl)ethenyl]sulfonyl]tetrahydro-8a-(methoxymethyl)-spiro[5H-oxazolo[3,2-a]pyrazine-2(3H),4′-piperidin]-5-one]	0.83 µM
O=C(C1CC1)N1CCC2(CC1)CN1C(=O)CN(S(=O)(=O)c3cc4cc(Cl)ccc4[nH]3)CC1(CO)O2 (single isomer, unassigned; (-)) [Example 52, (−)-7-[(5-chloro-1H-indol-2-yl)sulfonyl]tetrahydro-1′-cyclopropanoyl-8a-(hydroxymethyl)-spiro[5H-oxazolo[3,2-a]pyrazine-2(3H),4′-piperidin]-5-one]	0.57 µM
COC(=O)COCC12CN(S(=O)(=O)c3cc4cc(Cl)ccc4[nH]3)CC(=O)N1CC1(CCN(C(C)=O)CC1)O2 (single isomer, unassigned; (-)) [Example 54, (−)-1′-acetyl-7-[(5-chloro-1H-indol-2-yl)sulfonyl]tetrahydro-8a-(methoxycarbonylmethoxymethyl)-spiro[5H-oxazolo[3,2-a]pyrazine-2(3H),4′-piperidin]-5-one]	0.4 µM
CC(=O)N1CCC2(CC1)CN1C(=O)CN(S(=O)(=O)c3cc4cc(Cl)ccc4[nH]3)CC1(COc1ncccn1)O2 (single isomer, unassigned; (-)) [Example 56, (−)-1′-acetyl-7-[(5-chloro-1H-indol-2-yl)sulfonyl]tetrahydro-8a-(2-pyrimidyloxymethyl)-spiro[5H-oxazolo[3,2-a]pyrazine-2(3H),4′-piperidin]-5-one]	0.5 µM
